Measurements from patent US20190254984A1, “COMPOSITION AND FOOD OR DRINK” (Advanced Medical Frontier Co., Ltd., priority 2012, published 2019).

What was measured:
ob/ob mice [1] = assay: Example 5: blood glucose level of genetically obese mice over four weeks; assay type: in vivo; conditions: Orz even at 320 μg/g of body weight/day, n=14, FIG. 10B
Description: (§1) Ob/ob mice were raised at 24° C. under a light/dark cycle of 12 hours/12 hours. The mice were raised in conditions where they were able to freely take feed and water. The body weight of mice was measured every week.
(§2) γ-oryzanol incorporated with PLGA particles was dissolved in distilled water (hereinafter referred to as “Nano Orz”) and administered to the mice using a probe at a dose of 0.3, 1.3, or 5 μg/g of body weight per day for two days every two weeks. As a solution of γ-oryzanol which was not enclosed in the PLGA particle, γ-oryzanol (manufactured by Wako Pure Chemical Industries, Ltd.) was dissolved in a 0.5% methylcellulose solution (hereinafter referred to as “Orz”). Orz was administered to the stomach using a probe everyday for four weeks (5 or 320 μg/g of body weight/day).
Whole blood was collected from the tail vein of mice; and blood glucose was measured using a simple blood glucose meter. A blood sample was further collected from the network of the retro orbital vein. For a glucose tolerance test, the mice were fasted for 18 hours and thereafter administered with glucose at 0.75 g/kg of body weight. The blood glucose level was measured at the predetermined time. […] The concentration of triglycerides in the plasma was determined by Triglyceride E-Test Wako.
(§3) Data were expressed as mean±standard error (s.e.m). […]

[2] = tested on: IL-8 secretion from TNF-α-stimulated intestinal epithelial cells (Caco-2); assay: Example 3: IL-8 secretion upon TNF-α stimulation of Caco-2 cells (ELISA); assay type: cell-based, human; conditions: 24 h pretreatment with 1 μg/ml of γ-oryzanol; a decrease observed; compared with no and 0.1 μg/ml γ-oryzanol; FIG. 7A
Description: As for cells, Caco-2 (RCB0988, RIKEN, the Institute of Physical and Chemical Research) was used. Caco-2 was cultured in a […] culture dish until reaching semiconfluent. As for a medium, Dulbecco modified Eagle's Medium (DMEM, D5796, manufactured by Sigma-Aldrich) was used. To the medium, non-essential amino acids (M7145, manufactured by Sigma-Aldrich) and Penicillin/Streptomycin (hereinafter referred to as “PS”; manufactured by Gibco, Life Technologies Corporation Japan) were added.
Cells with 50 passages were detached with 0.25% trypsin/0.02% EDTA and seeded in a 24-well plate at a concentration of 2×10^5 cells/well. The cells were cultured in DMEM with 10% FBS (fetal bovine serum), 1% non-essential amino acids, and 1% PS for 14 days. The medium was changed every other day; and the cells were sufficiently differentiated to be used the experiment below.
The medium was removed 24 hours before stimulation with TNF-α; and the cells were washed with 1 ml of PBS per well twice. […]
The collected supernatant was subjected to ELISA (enzyme immunity measurement assay) to measure the amount of IL-8 in the supernatant. […] At the same time, the total amount of proteins in the supernatant was measured by using a bicinchoninic acid assay (Pierce BCA Protein Assay Kit, manufactured by Thermo Scientific). […]

ob/ob mice [3] = assay: Example 5: glucose tolerance test; assay type: in vivo; conditions: Orz even at 320 μg/g of body weight/day; n=14; FIG. 11C, 11D
Description: as §2
(§4) Whole blood was collected from the tail vein of mice; and blood glucose was measured using a simple blood glucose meter. A blood sample was further collected from the network of the retro orbital vein. For a glucose tolerance test, the mice were fasted for 18 hours and thereafter administered with glucose at 0.75 g/kg of body weight. The blood glucose level was measured at the predetermined time. In addition, for an insulin tolerance test, insulin (0.5 unit/kg of body weight; manufactured by Eli Lilly) was intraperitoneally injected to the mice that had fasted for four hours. The concentration of triglycerides in the plasma was determined by Triglyceride E-Test Wako.
as §3

ob/ob mice [4] = assay: Example 5: insulin tolerance test; assay type: in vivo; conditions: Orz even at 320 μg/g of body weight/day; n=14; FIG. 12C, 12D
Description: as §2, §4, §3

MCP-1 = assay: Example 5: inflammation marker gene expression in adipose tissues (real time PCR), MCP-1; assay type: in vivo, mice; conditions: Orz even at 320 μg/g of body weight/day, N=8
Description: as §2
(§5) The hypothalamus, the islets of Langerhans, the adipose tissue of the mesentery, the liver, the epididymal adipose tissue, and the subcutaneous adipose tissue were collected from the mice; and the expression level of ER stress marker genes (Chop, ERdj4, and Xbp1s), and inflammation marker genes (TNF-α and MCP-1) was quantified using a quantitative real time polymerase chain reaction. The islets of Langerhans was isolated from mice by digestion with collagenase (Liberase TL; manufactured by Roche Diagnostics K.K.) and purified using Histopaque (trademark) gradient (Histopaque 1077; manufactured by Sigma-Aldrich). […]
as §3

Chop = assay: Example 5: ER stress marker gene expression in tissues (real time PCR), Chop; assay type: in vivo, mice; conditions: for expression level of Chop: hypothalamus, Orz even at 320 μg/g of body weight/day
Description: as §2
(§6) The hypothalamus, the islets of Langerhans, the adipose tissue of the mesentery, the liver, the epididymal adipose tissue, and the subcutaneous adipose tissue were collected from the mice; and the expression level of ER stress marker genes (Chop, ERdj4, and Xbp1s), and inflammation marker genes (TNF-α and MCP-1) was quantified using a quantitative real time polymerase chain reaction. The islets of Langerhans was isolated from mice by digestion with collagenase (Liberase TL; manufactured by Roche Diagnostics K.K.) and purified using Histopaque (trademark) gradient (Histopaque 1077; manufactured by Sigma-Aldrich).
(§7) Using TRIzol (registered trademark) RNA Isolation Reagents (manufactured by Life Technologies Corporation), total RNA was extracted from each of the tissues; and cDNA was synthesized using iScript (trademark) cDNA Synthesis Kit (manufactured by Bio-Rad Laboratories, Inc.). Next, quantitative real time PCR was carried out using StepOnePlus (trademark) Real-Time PCR System, Fast TaqMan Universal Master Mix, and Fast SYBR Green Master Mix (manufactured by Applied Biosystems). The level of mRNA was normalized with that of 18S rRNA.
(§8) Data were expressed as mean±standard error (s.e.m). One-way analysis of variance, repeated measures analysis of variance, and multiple comparisons following repeated measures analysis of variance (Bonferroni/Dunn method) were employed as appropriate. For analysis of difference between two groups, Student's t-test was employed. […]

ob/ob mice [5] = assay: Example 2: body weight of ob/ob mice after oral administration; assay type: in vivo; conditions: γ-oryzanol alone, oral daily 5 and 320 μg/g of body weight/day; FIG. 1B
Description: The γ-oryzanol-incorporating particle prepared in Example 1 was orally administered to mice for evaluation.
(§9) First, the γ-oryzanol-incorporating particle was suspended in distilled water at 5%, 1.25%, and 0.31% (w/v). As a control, γ-oryzanol was suspended in 0.5% (w/v) methylcellulose solution (manufactured by Wako Pure Chemical Industries, Ltd.) at 0.05% and 3.2% (0.5 and 32 mg/ml).
(§10) Subsequently, each of the γ-oryzanol-incorporating particle suspensions and the γ-oryzanol suspensions was orally administered to ob/ob mice (five weeks old, male, B6. Lepob/J mice (homozygote (Lepob/Lepob)), made by Charles River Laboratories Japan, Inc.) (n=6) using a probe. For the details, the γ-oryzanol-incorporating particle suspension at 0.3, 1.3, and 5 μg/g of body weight/14 days in terms of γ-oryzanol was administered to the mice for two days followed by a five-day rest period every two weeks; and observation was made for 14 days. The daily dose was 1.1, 4.4, and 17.5 μg/g of body weight/day, respectively. […]
(§11) One week and two weeks after the beginning of the administration, the body weight and blood glucose level of the mice were measured. […] In such a test, following to 18-hour fasting, glucose was orally administered at 0.75 g/kg using a probe; and the blood glucose level was measured from the time of administration to two hours thereafter.

ob/ob mice [6] = assay: Example 2: blood glucose level of ob/ob mice; assay type: in vivo; conditions: γ-oryzanol alone, oral daily 5 and 320 μg/g of body weight/day; FIG. 2B
Description: as §9, §10, §11

obese mice = conditions: oral γ-oryzanol 320 mg/kg; cited from earlier work
ob/ob mice [7] = assay: Example 2: oral glucose tolerance test in ob/ob mice; assay type: in vivo; conditions: γ-oryzanol alone 5 and 320 μg/g of body weight/day; vs vehicle; FIG. 3C, 3D
Description: as §9, §10, §11

ERdj4 = assay: Example 5: ER stress marker gene expression in tissues (real time PCR), ERdj4; assay type: in vivo, mice; conditions: Orz even at 320 μg/g of body weight/day
Description: as §2, §5, §3

TNF-α = assay: Example 5: inflammation marker gene expression in adipose tissues (real time PCR), TNF-α; assay type: in vivo, mice; conditions: Orz even at 320 μg/g of body weight/day, N=8
Description: as §2, §5, §3

ob/ob mice [8] = assay: Example 5: body weight of genetically obese mice over four weeks; assay type: in vivo; conditions: Orz everyday for four weeks, even at 320 μg/g of body weight/day; n=14; FIG. 9B
Description: as §1, §2
Data were expressed as mean±standard error (s.e.m). One-way analysis of variance, repeated measures analysis of variance, and multiple comparisons following repeated measures analysis of variance (Bonferroni/Dunn method) were employed as appropriate. For analysis of difference between two groups, Student's t-test was employed. Difference was considered to be significant with P<0.05.

Xbp1s = assay: Example 5: ER stress marker gene expression in tissues (real time PCR), Xbp1s; assay type: in vivo, mice; conditions: Orz even at 320 μg/g of body weight/day, N=8
Description: as §2, §6, §7, §8

ob/ob mice [9] = assay: Example 5: plasma triglyceride; assay type: in vivo; conditions: Orz at the same amount as Nano Orz; n=6; FIG. 13
Description: as §2, §4, §3

γ-oryzanol
blood glucose level (ob/ob mice [1]): no significant change | amount of IL-8 in the supernatant [2]: no significant difference | glucose tolerance (glucose tolerance test, blood glucose and AUC) (ob/ob mice [3]): no improvement | insulin tolerance (insulin tolerance test, blood glucose and AUC) (ob/ob mice [4]): no improvement | expression level of MCP-1 (MCP-1; epididymal adipose tissue, FIG. 16B): did not inhibit | expression level of MCP-1 (MCP-1; subcutaneous fatty tissue, FIG. 16D): did not inhibit | expression of Chop (Chop; adipose tissue in the mesentery, Orz 320 μg/g of body weight/day, N=8, FIG. 15A): significantly inhibited | expression level of Chop (Chop; N=8, FIG. 14A): did not inhibit | expression level of Chop (Chop; printed in the sentence on ERdj4 (FIG. 14B)): did not inhibit | weight gain (ob/ob mice [5]): not observed | blood glucose level (ob/ob mice [6]): not observed | blood glucose level (obese mice): decreased | insulin secretion (obese mice): promotion | lipid absorption from the small intestine (obese mice): inhibition | taste for high fat diets (obese mice): restriction | blood glucose level in oral glucose tolerance test (ob/ob mice [7]): comparable | expression level of ERdj4 (ERdj4; islets of Langerhans, N=8, FIG. 14C): did not inhibit | expression level of ERdj4 (ERdj4; liver, printed in the sentence on Chop (FIG. 15C)): did not inhibit | expression level of TNF-α (TNF-α; epididymal adipose tissue, FIG. 16A): did not inhibit | expression level of TNF-α (TNF-α; subcutaneous fatty tissue, FIG. 16C): did not inhibit | weight gain (ob/ob mice [8]): no significant suppression | expression level of Xbp1s (Xbp1s; adipose tissue in the mesentery, FIG. 15B): did not inhibit | expression level of Xbp1s (Xbp1s; islets of Langerhans, FIG. 14D): did not inhibit | expression level of Xbp1s (Xbp1s; liver, FIG. 15D): did not inhibit | concentration of plasma triglyceride (ob/ob mice [9]): not decreased
